“Also recorded” adds a separate entry of the source. Marks after values point to notes of the source that are not given here.
Tests used:
[1] = Stability of CLF in human plasma at room temperature and 4° C. after 30 min pre-incubation in whole blood at 37° C. (Test 2), HPLC-MS/MS; format: in vitro ADME; conditions: for CLF concentration: plasma after 30 min blood pre-incubation at 37° C., mean ± SEM (n = 2); for percentage of compound remaining (by comparing with content at To), lowest over incubation / CLF remaining: plasma after blood pre-incubation; for percentage of compound remaining (by comparing with content at To), lowest over incubation: up to 24 h; for CLF remaining: vs To
Method: Eighty microliters (80 μl) of the working solution of CLF were added to 8 ml of human EDTA blood. The final concentration of CLF in blood was of 100 ng/ml. Then, sample was incubated at 37° C. in water bath for 30 min and plasma was prepared as described previously. Plasma was then divided into two equal fractions of 2 ml each. One fraction was incubated at room temperature and the second one was incubated at 4° C. in a cold room. Two aliquots of 200 μl were taken from both fractions just before incubation and after 30 min, 120 min and 24 h of incubation. Samples were stored at −70° C. until further analysis. […] Thus, a stock solution of IS at 100 μg/ml in acetonitrile was 50-fold diluted in acetonitrile in order to obtain a final concentration of 2 μg/ml. Then, 200 μl of this solution were added to each plasma sample in order to precipitate the proteins. Samples were vortexed/mixed and centrifuged 5 min at 20,000 g (4° C.). After centrifugation, the clear supernatant (around 250 μl) was transferred into 1.2 ml HPLC glass vials and sealed. Samples were placed into the refrigerated autosampler and 20 μl were injected into the HPLC-MS/MS system. Test samples were injected twice. […] The injected volume of sample was 20 μl and the “full loop” mode was applied. The temperature of the analytical column was kept at 30° C. CLF and its IS were separated on an Acclaim 120 C18 column (5 μm, 2.1×100 mm, Dionex) by elution with a linear gradient of acetonitrile in water as described in Table 6. An ion trap mass spectrometer equipped with an ESI interface was operated in the positive ionization mode. For each compound, the most abundant ion formed in MS was selected for MS/MS fragmentations. In order to increase the sensitivity and the specificity of the method, the MRM mode was selected. The most specific daughter ions formed in MS/MS were used for quantification.

[2] = Solubility and stability of CLF in working solutions by HPLC-UV-MS (254 nm); format: physicochemical; conditions: [CLF] = 50 μg/ml
Method: HPLC separation was operated with a mixture of water and acetonitrile containing 0.1% of formic acid and the reversed phase mode was selected. The injected volume of sample was 20 μl and the “full loop” mode was applied. The temperature of the analytical column was kept at 30° C. CLF, its metabolites and its IS were separated on a SunFire C18 column (5 μm, 2.1×100 mm, Waters) by elution with a linear gradient of acetonitrile in water as described in Table 62.
The wavelength of UV detector was scaled at 254 nm. An ion trap mass spectrometer equipped with electrospray ionization (ESI) interface was operated in positive ionization mode. Detection was carried out in the following modes: • MS mode (full scan) in positive ESI for analysis of working and treatment solutions and metabolites identification, • MS/MS mode (MRM, multiple reaction monitoring) in positive ESI for qualitative analysis of CLF, its IS and its metabolites. Briefly, specific parent ions formed for CLF, its IS and its identified metabolites were selected for MS/MS fragmentations.
Two working solutions of CLF were prepared. The first was prepared in 100% methanol for a final concentration of CLF at 109.6 μg/ml (SS CLF-MetOH) and the second was prepared in aqueous ethanol (water/ethanol/sodium hydroxide (50%), at 1000/500/30, v/v/v) for a final concentration of CLF at 71.6 μg/ml (SS CLF-EtOH).
Working solution used during this study were centrifuged 5 min at 3000 g and then diluted in a methanol/water mixture (50/50, v/v) in order to obtain three homogeneous solutions at 50 μg/ml. Then, 200 μl were transferred into 1.2 ml HPLC glass vials and sealed. Samples were placed into the refrigerated auto-sampler and 20 μl were injected into the HPLC-UV-MS system.
A blank sample was included (methanol/water, 50/50, v/v) to clearly distinguish interferences and impurities. The UV detection (scaled at 254 nm) allowed evaluating the solubility of CLF in both solvents by comparing CLF chromatographic peak areas. In case of signs of instability (additional chromatographic peaks), MS and then MS/MS (if needed) detections allowed to identify the impurities formed.

[3] = system: serum proteins; experiment: Recovery of spiked CLF from individual human serum samples, classical and labelled-antibody competitive immunoassays; format: in vitro ADME; conditions: inferred from low recovery of CLF spiked into serum
Method: Streptavidin-coated microtitre plate Biotinylated anti-fluorescein antibody, “BJ/C” (NovAssay, using HyTest mouse monoclonal anti-fluorescein, cat code 5F3 2A3 (conjugate ref. DV038/182-1) or AbD Serotec sheep polyclonal anti-fluorescein, cat code 640001 (ref. DV038/182-2) is bound to the plate CLF from the sample competes with CLF-horseradish peroxidase, “CJ/C” (CLF-HRP; NovAssay, DV047/14) for the biotinylated anti-fluorescein antibody Bound CLF-HRP is measured colorimetrically using tetramethylbenzidine (TMB) substrate.
• Streptavidin-coated microtitre plate • Biotin-fluorescein (Sigma B9431) is bound to the plate • CLF from the sample competes with bound biotin-fluorescein for an anti-fluorescein-HRP conjugate (NovAssay, using HyTest mouse monoclonal anti-fluorescein, cat code 5F3 2A3 (conjugate ref. DV047/17-3) • Bound anti-fluorescein-HRP is measured colorimetrically using tetramethylbenzidine (TMB) substrate. […]
Given the success of achieving workable standard curves in both formats, 100 ng/ml of CLF was spiked into a number of individual human serum samples, and the percentage CLF recovery calculated (e.g. 50 ng/ml=50%). […]

[4] = room temperature (25 ± 2° C.), 0.0 hours
[5] = room temperature (25 ± 2° C.), 0.5 hours
[6] = room temperature (25 ± 2° C.), 2.0 hours
[7] = room temperature (25 ± 2° C.), 24.0 hours

`CC(CCC(=O)NC(CCCCNC(=S)Nc1ccc(-c2c3ccc(=O)cc-3oc3cc(O)ccc23)c(C(=O)O)c1)C(=O)O)C1CCC2C3C(O)CC4CC(O)CCC4(C)C3CC(O)C12C` [CLF, Cholyl-L-Lysyl-Fluorescein] showed a plasmatic concentrations measured ([1]; blood spiked with 100 ng/ml, plasma at 4° C. and room temperature, 0-24 h) of 147.7 to 164.9 ng/mL, a CLF concentration ([1]; 4° C., 0.0 hours) of 163.3 ± 3.6 ng/mL and a CLF concentration ([1]; 4° C., 0.5 hours) of 155.4 ± 7.0 ng/mL. For the same compound, the CLF concentration ([1]; 4° C., 2.0 hours) was 164.9 ± 4.2 ng/mL, the CLF concentration ([1]; 4° C., 24.0 hours) was 152.7 ± 4.2 ng/mL and the CLF concentration [1, 4] was 163.3 ± 3.6 ng/mL. For the same compound, the CLF concentration [1, 5] was 159.3 ± 0.6 ng/mL, the CLF concentration [1, 6] was 151.1 ± 0.8 ng/mL and the CLF concentration [1, 7] was 147.7 ± 3.7 ng/mL. For the same compound, the “percentage of compound remaining (by comparing with content at To), lowest over incubation” value ([1]; 4° C.) was at least 93.5%, the “percentage of compound remaining (by comparing with content at To), lowest over incubation” value ([1]; room temperature) was “at least 90.5%” and the CLF remaining ([1]; 4° C., 0.0 hours) was 100.0%. The CLF remaining ([1]; 4° C., 0.5 hours) was 95.2%, the CLF remaining ([1]; 4° C., 2.0 hours) was 101.0% and the CLF remaining ([1]; 4° C., 24.0 hours) was 93.5%. It also gave a CLF remaining [1, 4] of 100.0%, a CLF remaining [1, 5] of 97.6% and a CLF remaining [1, 6] of 92.5%. The CLF remaining [1, 7] was 90.5%, the “CLF stability in plasma after pretreatment of whole blood at 37° C.” value ([1]; room temperature and 4° C., up to 24 hours) was “stable during 24 h; also recorded: stable under these conditions” and the “Peak Area, UV detection (254 nm)” value ([2]; Aqueous ammonium bicarbonate solution (0.1M), other batch of CLF) was 5305.5*. The “peak area of CLF in aqueous ethanol mixture relative to methanol and aqueous ammonium bicarbonate 0.1 M (fold lower)” value ([2]; HPLC-UV 254 nm, water/ethanol/sodium hydroxide working solution) was “around 10 fold”, the “Peak Area, UV detection (254 nm)” value ([2]; SS CLF-EtOH working solution) was 470.9 and the “Peak Area, UV detection (254 nm)” value ([2]; SS CLF-MetOH working solution) was 4395.1. The “binding of CLF to serum proteins” value [3] was “binds to serum proteins; also recorded: significant protein binding”.

Reference: patent US20150212068A1, “Cholyl-L-Lysyl-Fluorescein Assay” (Novassay SA, priority 2012, published 2015)
